In patent publication US20240300905A1, “Quinazoline Compounds and Uses” (Prosetta Biosciences, Inc., priority 2023, published 2024) one finds EC50 data, which are given here for 15 compounds.

Format in all cases: cell-based
One test has as its system plasmodium. As to the kind of experiment: Malaria screen (SYBR green fluorescence, plasmodium parasitemia culture). To be noted: 0.5% plasmodium parasitemia culture, 48 hours. The method, then: Compound was added to a 0.5% plasmodium parasitemia culture for 48 hours, then treated with SYBR green (a dye with marked fluorescence enhancement upon contact with plasmodium DNA) and the fluorescence was measured in drug treated versus untreated cells to determine inhibitory effects (Smilkstein, et al., “Simple and inexpensive fluorescence-based technique for high-throughput antimalarial drug screening,” Antimicrob Agents Chemother, 2004 May; 48(5):1803-6. doi: 10.1128/AAC.48.5.1803-1806.2004. PMID: 15105138: PMCID: PMC400546).

The subject of a further test is Hennes-20 cells. As to the kind of experiment: Hennes-20 oncology screen (low vs high plating density, alamar Blue). To be noted: 72 h, Hennes-20 cells, 72 hours compound incubation, alamar Blue; read-out: EC50. The method, then:
All compounds mentioned as active were tested in Hennes. Select hits from the Hennes screen were sent for additional anti-cancer testing.
To screen compounds for oncology activity Hennes-20 cells were plated at low (500 cells/well) versus high (15,000 cells/well) densities and treated with DMSO (vehicle) or dose-titration of compounds. The rationale for this screen is that an intrinsically toxic compound should kill cells regardless of density, including in Hennes-20 cells. However, a compound that selectively triggers the arrest of proliferation will inhibit cell growth when plated at a low density will appear cytotoxic due to inhibition of cell growth when plated at a low density but will appear non-toxic to cells plated at a high density where the cells are approaching confluence and the readout detected by a cell viability assay is already close to the maximum.
To conduct the Hennes-20 screen, two 96 well plates were seeded with Hennes 20 cells in parallel where one was plated at a density of 500 cells/well and the other was plated at a density of 15,000 cells/well. 90 uL of minimum essential media was added to each well and plates were placed in a 37 degrees Celsius incubator for 24 hours. The next day, 10 ul of media containing dilutions of compound in DMSO were added to each plate. Six wells on each plate received 10 ul of media containing only DMSO. Each well was gently mixed 5 times with a 100 ul pipette. Plates were incubated at 37 degrees Celsius for 72 hours then 10 uL of alamar Blue was added to each well. Wells were mixed 5 times then incubated at 37 degrees Celsius for […]. Plates were then read at 530/590.
The rationale for the screen is as follows: Hennes-20 cells lack endogenous apoptosis. Cells plated at low density will proliferate and approach confluence in 72 hrs. A drug that arrests proliferation may have its proliferation blocking effect masked by the triggering of endogenous apoptosis. However, in the Hennes line, lacking endogenous apoptosis, such an arrest is manifest as a dose-dependent maintenance at low cell density. Since the high-density cells are plated close to confluence, the difference between Alamar Blue cell survival readings after 72 hrs reflects the ability of the drug to block proliferation in the low density-plated cells. In the high density-plated cells any diminution of Alamar Blue readout vs vehicle control is due to intrinsic toxicity, not proliferation arrest, since cells were already at confluence. Thus, a compound that appears toxic (low Alamar Blue readings after 72 hrs) on the low-density plate, but which appears non-toxic (high Alamar Blue readings after 72 hrs) on the high-density plate, must be arresting proliferation, since intrinsic compound toxicity should be observed at both low and high cell densities, not selectively on the low-density plate.
For orientation: Alamar Blue is a resazurin reagent that responds to reducing activity.

For a further test, the system named is NL4-3 Rluc virus. As to the kind of experiment: HIV screen (NL4-3 Rluc virus in MT-2 cells, luciferase readout). The following applies: Human immunodeficiency virus 1, NL43, MT2, 96 h. The procedure: MT-2 cells were preseeded in 96-well plates in 100 uL of complete RPMI. Multiple concentrations of PAV-951 were serially diluted in DMSO then into an infection media prepared by diluting NL4-3 Rluc virus stock to 400 IU/100 uL with complete RPMI, which was transferred onto the MT-2 cells with a final MOI of 0.02 and final DMSO concentration of 1% in infected places. One well received DMSO only, instead of PAV-951, and one well received medium only for normalization and background collection. Cells were incubated at 37 degrees Celsius for 96 hours. 100 ul of medium was removed and discarded and 10 uL of 15 uM EnduRen luciferase substrate was added to each well, followed by incubation for 1.5 hours at 37 degrees Celsius. Plates were read on a luminescence plate reader. Bioluminescence intensity was read on a Synergy H1 BioTek plate reader. Averages and standard deviation for viral titer observed under different treatment conditions were calculated in Microsoft Excel and graphed as the percent inhibition in PAV-951 treated cells compared to untreated cells.

The structures appear in SMILES notation.

As to `c1ccc(CCNc2ncnc3cc(N4CCN(c5ccc6c(NCCc7ccccn7)ncnc6c5)CC4)ccc23)nc1` [Compound 40], the EC50 (commonly the concentration giving half of the maximal effect) in the test on plasmodium is 0.091 µM; with Hennes-20 cells it was below 12.5 µM.

Regarding `CC(C)CCNc1ncnc2cc(N3CCN(c4ccc5c(NCCC6CCNCC6)ncnc5c4)CC3)ccc12` [Compound 36], the results for the concentration for a half-maximal effect (EC50) in the test with plasmodium and with Hennes-20 cells were 0.76 µM and below 12.5 µM, respectively.

`CC(C)CCNc1ncnc2cc(N3CCN(c4ccc5ccn(CCC(C)C)c5c4)CC3)ccc12` [Compound 34] showed an EC50 in the test on plasmodium of 0.2 µM.

Consider `c1cncc(CCNc2ncnc3cc(N4CCN(c5ccc6c(NCCc7cccnc7)ncnc6c5)CC4)ccc23)c1` [Compound 41], for which the figures for the concentration for a half-maximal effect (EC50) in the test with plasmodium and with Hennes-20 cells were 0.06 µM and below 12.5 µM, respectively.

With `c1ccc(CCNc2ncnc3cc(N4CCN(c5ccc6c(NCCc7ccccc7)ncnc6c5)CC4)ccc23)cc1` [Compound 1], the figures for the EC50 in the test with plasmodium and in the test with Hennes-20 cells were 0.036 µM and below 0.5 µM, respectively.

Turning to `CC(C)CCNc1ncnc2cc(N3CCN(c4ccc5c(NCCc6ccccc6)ncnc5c4)CC3)ccc12` [Compound 11], the half-maximal effective concentration (EC50) was 0.032 µM with plasmodium and below 0.1 µM in the test with Hennes-20 cells.

As to `Cn1cccc1CCNc1ncnc2cc(N3CCN(c4ccc5c(NCCc6cccn6C)ncnc5c4)CC3)ccc12` [Compound 5], the 50% effective concentration (EC50) is 190 nM in the test on NL4-3 Rluc virus, 0.031 µM in the test on plasmodium and below 2.5 µM in the test with Hennes-20 cells.

For the compound `CC(C)CCN(C)c1ncnc2cc(N3CCN(c4ccc5c(N(C)CCC(C)C)ncnc5c4)CC3)ccc12` [Compound 26], the EC50 with plasmodium is 0.068 µM.

`CC(C)CC(=O)Nc1ncnc2cc(N3CCN(c4ccc5c(NC(=O)CC(C)C)ncnc5c4)CC3)ccc12` [Compound 43] yielded an EC50 in the test on plasmodium above 10 µM.

For `CC(C)CCNc1ncnc2cc(N3CCN(c4ccc5c(NCCC(C)C)ncnc5c4)CC3)ccc12` [Compound 6], the 50% effective concentration (EC50) in the test with NL4-3 Rluc virus is 340 nM; with plasmodium, 0.024 µM; with Hennes-20 cells, below 0.5 µM.

For `Clc1ccc2c(N3CCN(c4ncnc5cc(Cl)ccc45)CC3)ncnc2c1` [Compound 46], the values for the concentration giving a half-maximal response (EC50) in the test with NL4-3 Rluc virus and with plasmodium were 510 nM and above 10 µM, respectively.

On to `c1cc(CCNc2ncnc3cc(N4CCN(c5ccc6c(NCCc7ccncc7)ncnc6c5)CC4)ccc23)ccn1` [Compound 33], for which the 50% effective concentration (EC50) was 0.03 µM in the test on plasmodium and below 12.5 µM with Hennes-20 cells.

Take `COc1ccc(CNc2ncnc3cc(N4CCN(c5ccc6c(NCc7ccc(OC)cc7)ncnc6c5)CC4)ccc23)cc1` [Compound 20]: in the test on plasmodium, a half-maximal response (EC50) required 0.028 µM.

For `CC(C)CCNc1ncnc2cc(N3CCNCC3)ccc12` [Compound 35], the EC50 in the test on plasmodium stood at 0.77 µM.

For `CC(C)CCn1ccc2cc(N3CCN(c4ccc5c(ccn5CCC(C)C)c4)CC3)ccc21` [Compound 39], a half-maximal effect in the test on plasmodium (EC50) was put at 3 µM.
